Experimental data reported in PMC4267622, “Pin1-mediated Sp1 phosphorylation by CDK1 increases Sp1 stability and decreases its DNA-binding activity during mitosis” (Nucleic Acids Research, 2014).

Columns and labels:
Pin1 = experiment: Isothermal titration calorimetry binding of Sp1 peptides to Pin1; conditions: 25°C
Method: (§1) Additionally, two other point mutants of Pin1, K63A and C113A, which are PPIase-activity-deficient, were generated and used in the crystallographic experiments ([42]). For the crystallization and the thermodynamic parameters of Pin1 and Sp1 peptide binding analysis, protein expression and crystallization of Pin1 was performed in slightly modified as described previously ([41]). In brief, the gene for Pin1 was cloned into pET28a with an N-terminal His12-tag and a thrombin cleavage site. R14A, R14A/K63A and R14A/C113A mutants of Pin1 were generated using the PCR-based QuikChange site-directed mutagenesis kit (Agilent). The correct construct was transformed into E. coli BL-21 (DE3) competent cells for protein expression. Transformed BL21 (DE3) bacteria were grown in Luria Bertani (LB) medium containing […] kanamycin at 30°C. Bacteria were induced with 1 mM isopropyl β-D-thiogalactoside (IPTG) overnight at 20°C. Pin1 proteins were purified by Ni^2+-nitrilotriacetic acid affinity chromatography, digested with thrombin and further purified by second run of Ni^2+-nitrilotriacetic acid affinity chromatography. The protein was prepared at 10–20 mg/ml in 10mM HEPES pH 7.5 containing 100 mM NaCl and 1 mM DTT for crystallization. Crystals were grown from a drop composed of 1 ml of protein solution and 1 ml of reservoir solution consisting of 2.0–2.5 M (NH4)2SO4, 1–2% (w/v) PEG 400 and 1–2 mM DTT in 0.1M HEPES buffer pH 7.5 equilibrated at 4°C against 0.5 ml of reservoir solution using the hanging-drop vapor-diffusion method. Crystals of Pin1 in complex with Sp1 peptides were obtained in co-crystallization experiments with the Pin1 protein pre-mixed with 10-fold Sp1 peptide and incubated at 4°C for 4 h before crystallization.
Thermodynamic parameters of Pin1 and Sp1 peptide binding were determined using a Micro-Cal iTC200 (GE Healthcare Life Sciences). All samples were filtered with […] cutoff filters (Millipore). The buffer for Pin1 and Sp1 peptide solutions consisted of 10 mM HEPES pH 7.5, 100 mM NaCl and 1 mM DTT. A […] solution of Sp1 peptide was directly titrated into a solution of […] Pin1 in […] aliquots. The experiments were performed at 25°C. Data were then analysed using the software origin.
To confirm that Pin1 indeed affects the C-terminal conformation of Sp1, Pin1 was purified and oligopeptides of the region 735–745 of Sp1, with or without phosphate at Thr739, were synthesized for ITC and X-ray crystallography experiments (Figure 3). […] Furthermore, two other point mutants of Pin1, K63A and C113A, which are PPIase-activity-deficient, were generated and used in the crystallographic experiments ([42]).
Figure 3. Pin1 recruitment alters the conformation of C-terminal Sp1. (A) The binding analyses of Thr739-Sp1 (left panel) and Thr739(p)-Sp1 (right panel) peptides to Pin1 were determined by ITC. Representative plots from an ITC experiment are shown with raw data in the upper panel and curve fit in the lower panel. The Thr739-Sp1 or Thr739(p)-Sp1 peptides were titrated into the reaction cell containing Pin1 protein. […] The 2Fo–Fc electron density is shown in blue color, contoured at 1σ. […] Overall structure (i) and a close-up view of the active-site pocket of Pin1 (ii). […] Positive charges on the electrostatic surfaces are drawn in blue and negative charges in red.

Pin1 R14A mutant = experiment: X-ray crystallography of Sp1 peptide with Pin1 R14A; assay type: binding; conditions: co-crystallization, Pin1 pre-mixed with 10-fold peptide, 4°C for 4 h
Method: as §1, with “Crystals were grown from a drop composed of 1 ml of protein solution and 1 ml of reservoir solution consisting of 2.0–2.5 M (NH4)2SO4, 1–2% (w/v) PEG 400 and 1–2 mM DTT in 0.1M HEPES buffer pH 7.5 equilibrated at 4°C against 0.5 ml of reservoir solution using the hanging-drop vapor-diffusion method. Crystals of Pin1 in complex with Sp1 peptides were obtained in co-crystallization experiments with the Pin1 protein pre-mixed with 10-fold Sp1 peptide and incubated at 4°C for 4 h before crystallization.” left out
(§2) All crystals were flash-cooled to 100 K in a stream of cold nitrogen prior to data collection. […] The electron density was calculated by Refmac5 ([43]). […]

Pin1 R14A/C113A mutant = experiment: X-ray crystallography of Sp1 peptide with Pin1 R14A/C113A; assay type: binding; conditions: ablated isomerase activity; co-crystallization, 10-fold peptide, 4°C for 4 h
Method: as §1, with “Crystals were grown from a drop composed of 1 ml of protein solution and 1 ml of reservoir solution consisting of 2.0–2.5 M (NH4)2SO4, 1–2% (w/v) PEG 400 and 1–2 mM DTT in 0.1M HEPES buffer pH 7.5 equilibrated at 4°C against 0.5 ml of reservoir solution using the hanging-drop vapor-diffusion method. Crystals of Pin1 in complex with Sp1 peptides were obtained in co-crystallization experiments with the Pin1 protein pre-mixed with 10-fold Sp1 peptide and incubated at 4°C for 4 h before crystallization.” left out
as §2

[1] = tested on: Sp1-binding probe of p21^WAF1/CIP1 promoter; experiment: DNA affinity precipitation assay (DAPA); conditions: mitotic extract of HeLa cells, 4°C, 1 h, three independent experiments
Method: Cell lysate incubated with 1 μg of binding probes in 500 μl binding of buffer (2 mM MgCl2, 60 mM KCl, 20 mM Tris-HCl pH 7.8, 5% glycerol, 0.5 mM EDTA and 0.02% NP-40). After incubation for 1 h at 4°C, the mixture was incubated with 30 μl of streptavidin-agarose beads (GE Healthcare Life Sciences) for 1 h at 4°C. The mixture was washed three times by binding buffer. The proteins in the beads were eluted by 2X sample buffer and analysed by SDS-PAGE and immunoblotting. The Sp1-binding probe 5′-[…]-3′, localized from −82 to −50 bp within the promoter of p21^WAF1/CIP1, was biotinylated at 5′ termini and then annealed with complementary strands.

HeLa cells [2] = experiment: Protein level of GFP-Sp1 constructs in HeLa cells (western blot); assay type: cell-based; conditions: equal amount of plasmids
Method: (§3) HeLa cells and mouse embryonic fibroblasts (MEFs) were cultured in DMEM containing 10% of FBS, 100μg/ml streptomycin sulfate and 100 units/ml penicillin G sodium at 37°C, 5% CO2. For transfection of GFP-Sp1, GFP-Sp1-T739A, GFP-Sp1-T739D, GFP-Sp1 (1-740), GFP-Sp1-4A, GFP-Sp1-4D, HA-Sp1, HA-Sp1-4A (S720A, T723A, T737A and T739A), HA-Sp1-4D (S720D, T723D, T737D and T739D), pGL2, pGL2-p21, Sp1 shRNA, or Pin1 shRNA, 2 μg of plasmids was incubated with 2 μl of Lipofectamine in 200 μl of OPTI-MEM for 30 min in room temperature. After incubation, the mixture of plasmids and Lipofectamine in OPTI-MEM was added into 2 ml of OPTI-MEM. The cells were incubated with the mixture of plasmids and Lipofectamine for 6 h. The cells were then incubated in fresh Dulbecco's modified Eagle's medium (DMEM) for 18 or 36 h. The cells were collected for immunoprecipitation or immunoblotting.
Cell lysates or immunoprecipitation samples were fractionated by sodium dodecyl sulfate-polyacrylamide gel electrophoresis (SDS-PAGE) and transferred to polyvinylidene fluoride (PVDF) membrane using a transfer apparatus according to the manufacturer's protocols (Bio-Rad). After incubation with 3% non-fat milk or 2% bovine serum albumin in Tris-buffered Saline with Tween 20 buffer (TBST buffer, 10 mM Tris-HCl pH 8.0, 150 mM NaCl and 0.5% Tween 20) for 1 h, membranes were incubated with antibodies at 4°C overnight. […]

RNF4 = RNF4 co-immunoprecipitation with GFP-Sp1 constructs; assay type: binding; conditions: HeLa, anti-GFP immunoprecipitation, vs full-length Sp1 (1–785)
Method: Cell lysates were prepared by using mRIPA buffer (50 mM Tris-HCl, pH 7.8, 150 mM NaCl, 5 mM ethylenediaminetetraacetic acid (EDTA), 0.1% Triton-X100, 0.05% NP-40). The lysates were incubated with anti-Sp1 (1:500), anti-CDK1 (1:200), anti-Pin1 (1:250), anti-HA tag (1:250), or anti-GFP tag (1:200) antibodies at 4°C for 1 h. After 1 h incubation, the mixture was incubated with Protein A or G Sepharose agarose beads at 4°C for 1 h. The beads were collected and washed three times by mRIPA buffer. The beads were added 2X electrophoresis sample buffer and analysed by immunoblotting.

p21^CIP/WAP = p21^CIP/WAP luciferase activity assay; assay type: cell-based; conditions: HeLa, vs GFP-Sp1 (1–785)
Method: as §3

HeLa cells [3] = experiment: Sp1 localisation on chromosomes during mitosis; assay type: cell-based; conditions: nocodazole 16 h
Method: The cells were fixed with 4% paraformaldehyde (Sigma-Aldrich) in PBS according to a method described previously ([3]). Immunostaining was conducted with primary antibodies such as anti-Sp1, anti-GFP tag (Santa Cruz Biotechnology, Santa Cruz, CA), or anti-Pin1 (Calbiochem, San Diego, CA) antibodies. The cells were then treated with Alexa Fluor 488-conjugated goat anti-mouse or rabbit immunoglobulin G (IgG) and Alexa Fluor 568-conjugated goat anti-mouse or rabbit IgG polyclonal antibodies (Jackson ImmunoResearch Laboratories Inc., West Grove, PA). Finally, the cells were mounted in 90% glycerol containing 4'-6-diamidino-2-phenylindole (DAPI) (Invitrogen), and examined using a confocal laser-scanning microscope (FluoView^TM FV 1000; Olympus, Melville, NY) or immunofluorescence microscope (Personal DV Applied Precision, Issaquah, WA). The images were analysed with softWoRx software (Applied Precision Inc.).

HeLa cells [4] = experiment: Flow cytometry with PI staining (cell cycle); assay type: cell-based; conditions: nocodazole 16 h
Method: The cells washed by cold PBS and then fixed in 70% alcohol or 4% paraformaldehyde at 4°C for 2 h. After fixation, the cells washed by cold PBS and treated with 0.1% TritonX-100, 10μg/ml RNase and 50 μg/ml propidium iodide for 1 h. The cells were analysed by flow cytometer (Cell Lab Quanta™ SC; Beckman Coulter or FACSCalibur; BD Biosciences).

Ka (Pin1; ITC curve fit, 10 mM HEPES pH 7.5, 100 mM NaCl, 1 mM DTT) | N (stoichiometry of bound Thr739(p)-Sp1 peptide per Pin1 protein) (Pin1; ITC curve fit, pH 7.5) | ΔH (Pin1; ITC curve fit, pH 7.5) [kcal/mol] | ΔS (Pin1; ITC curve fit, pH 7.5) [cal/mol/K] | Substance | interaction with Pin1 (Pin1; ITC, 10 mM HEPES pH 7.5, 100 mM NaCl, 1 mM DTT) | configurations of electron density map of bound peptide (Pin1 R14A mutant) | configurations of electron density map of bound peptide (Pin1 R14A/C113A mutant) | DNA-binding activity to the p21^CIP/WAP promoter [1] | protein level (HeLa cells [2]) | interaction with RNF4 (RNF4) | transcriptional activity of p21^CIP/WAP (p21^CIP/WAP) | removal from chromosomes during mitosis (HeLa cells [3]) | cells entered mitosis (HeLa cells [4]) [%]
7.4 ± 1.4 × 10^3 M^−1 | 0.93 ± 0.25 | -6.8 ± 2.2 | -5.0 | Thr739(p)-Sp1 peptide: oligopeptide of the region 735–745 of Sp1, with phosphate at Thr739 | Pin1 could interact with the Thr739(p)-Sp1 peptide | one configuration | two configurations | – | – | – | – | – | –
– | – | – | – | GFP-Sp1 (1–740): GFP-Sp1 lacking the C-terminal end (741–785) | – | – | – | increased the DNA-binding activity of Sp1 during mitosis | higher than that of GFP-Sp1 (1–785) | decreased interaction between RNF4 and GFP-Sp1 (1–740) | increased the transcriptional activity of p21^CIP/WAP | – | –
– | – | – | – | Sp1-4D: Sp1 mutant S720D, T723D, T737D and T739D | – | – | – | decreased the DNA-binding activity of Sp1 to the p21^CIP/WAP promoter | – | – | – | completely removed from the chromosomes | 75
